# Measured values taken from US8877748B2, “Heterocyclic fused anthraquinone derivatives, manufacturing method and pharmaceutical composition using thereof” (National Defense Medical Center, priority 2012, dated 2014).
# Experiments:
# [1] = system: PC-3 prostate cancer cell line; assay: SRB assay cell viability, PC-3 prostate cancer cell line; assay type: cell-based, human; conditions: Homo sapiens, PC-3 prostate cancer cell line, Table II prints no unit, μM printed, read-out: SRB assay: 50% inhibition of cancer cell proliferation of sample concentration (IC50) of PC-3 prostate cancer cell line
# HL-60, TB = assay: NCI one-dose screening, leukemia HL-60, TB; assay type: cell-based, human; conditions: 10 μM
# MOLT-4 = assay: NCI one-dose screening, leukemia MOLT-4; assay type: cell-based, human; conditions: 10 μM
# SR = assay: NCI one-dose screening, leukemia SR; assay type: cell-based, human; conditions: 10 μM
# PRMI-8226 cell line = assay: NCI one-dose screening, leukemia PRMI-8226; assay type: cell-based, human; conditions: 10 μM
# K562cell line = assay: NCI one-dose screening, leukemia K562; assay type: cell-based, human; conditions: 10 μM
# EKVX = assay: NCI one-dose screening, non-small cell lung cancer EKVX; assay type: cell-based, human; conditions: 10 μM
# HOP-62 = assay: NCI one-dose screening, non-small cell lung cancer HOP-62; assay type: cell-based, human; conditions: 10 μM
# HOP-92 = assay: NCI one-dose screening, non-small cell lung cancer HOP-92; assay type: cell-based, human; conditions: 10 μM
# NCI-H226 = assay: NCI one-dose screening, non-small cell lung cancer NCI-H226; assay type: cell-based, human; conditions: 10 μM
# NCI-H23 = assay: NCI one-dose screening, non-small cell lung cancer NCI-H23; assay type: cell-based, human; conditions: 10 μM
# NCI-H460 = assay: NCI one-dose screening, non-small cell lung cancer NCI-H460; assay type: cell-based, human; conditions: 10 μM
# NCI-H522 = assay: NCI one-dose screening, non-small cell lung cancer NCI-H522; assay type: cell-based, human; conditions: 10 μM
# A549/ATCC = assay: NCI one-dose screening, non-small cell lung cancer A549/ATCC; assay type: cell-based, human; conditions: 10 μM
# COLO 205 = assay: NCI one-dose screening, colon cancer COLO 205; assay type: cell-based, human; conditions: 10 μM
# HCC-2998 = assay: NCI one-dose screening, colon cancer HCC-2998; assay type: cell-based, human; conditions: 10 μM
# HCT-116 = assay: NCI one-dose screening, colon cancer HCT-116; assay type: cell-based, human; conditions: 10 μM
# HCT-15 = assay: NCI one-dose screening, colon cancer HCT-15; assay type: cell-based, human; conditions: 10 μM
# KM12 = assay: NCI one-dose screening, colon cancer KM12; assay type: cell-based, human; conditions: 10 μM
# HT29 = assay: NCI one-dose screening, colon cancer HT29; assay type: cell-based, human; conditions: 10 μM
# SF-268 = assay: NCI one-dose screening, CNS cancer SF-268; assay type: cell-based, human; conditions: 10 μM
# SF-539 = assay: NCI one-dose screening, CNS cancer SF-539; assay type: cell-based, human; conditions: 10 μM
# SNB-19 = assay: NCI one-dose screening, CNS cancer SNB-19; assay type: cell-based, human; conditions: 10 μM
# SNB-75 = assay: NCI one-dose screening, CNS cancer SNB-75; assay type: cell-based, human; conditions: 10 μM
# U251 = assay: NCI one-dose screening, CNS cancer U251; assay type: cell-based, human; conditions: 10 μM
# LOX IMVI = assay: NCI one-dose screening, melanoma LOX IMVI; assay type: cell-based, human; conditions: 10 μM
# MALME-3M = assay: NCI one-dose screening, melanoma MALME-3M; assay type: cell-based, human; conditions: 10 μM
# M14 = assay: NCI one-dose screening, melanoma M14; assay type: cell-based, human; conditions: 10 μM
# UACC-62 = assay: NCI one-dose screening, melanoma UACC-62; assay type: cell-based, human; conditions: 10 μM
# UACC-257 = assay: NCI one-dose screening, melanoma UACC-257; assay type: cell-based, human; conditions: 10 μM
# SK-MEL-2 = assay: NCI one-dose screening, melanoma SK-MEL-2; assay type: cell-based, human; conditions: 10 μM
# SK-MEL-28 = assay: NCI one-dose screening, melanoma SK-MEL-28; assay type: cell-based, human; conditions: 10 μM
# SK-MEL-5 = assay: NCI one-dose screening, melanoma SK-MEL-5; assay type: cell-based, human; conditions: 10 μM
# IGROV1 = assay: NCI one-dose screening, ovarian cancer IGROV1; assay type: cell-based, human; conditions: 10 μM
# OVCAR-3 = assay: NCI one-dose screening, ovarian cancer OVCAR-3; assay type: cell-based, human; conditions: 10 μM
# OVCAR-5 = assay: NCI one-dose screening, ovarian cancer OVCAR-5; assay type: cell-based, human; conditions: 10 μM
# OVCAR-8 = assay: NCI one-dose screening, ovarian cancer OVCAR-8; assay type: cell-based, human; conditions: 10 μM
# SK-OV-3 = assay: NCI one-dose screening, ovarian cancer SK-OV-3; assay type: cell-based, human; conditions: 10 μM
# 786-O = assay: NCI one-dose screening, renal cancer 786-O; assay type: cell-based, human; conditions: 10 μM
# [2] = NCI one-dose screening, renal cancer A489; assay type: cell-based, human; conditions: 10 μM
# ACHN = assay: NCI one-dose screening, renal cancer ACHN; assay type: cell-based, human; conditions: 10 μM
# SN12C = assay: NCI one-dose screening, renal cancer SN12C; assay type: cell-based, human; conditions: 10 μM
# TK-10 = assay: NCI one-dose screening, renal cancer TK-10; assay type: cell-based, human; conditions: 10 μM
# UO-31 = assay: NCI one-dose screening, renal cancer UO-31; assay type: cell-based, human; conditions: 10 μM
# RXF, 393 = assay: NCI one-dose screening, renal cancer RXF, 393; assay type: cell-based, human; conditions: 10 μM
# DU145 = assay: NCI one-dose screening, prostate cancer DU145; assay type: cell-based, human; conditions: 10 μM
# PC-3 = assay: NCI one-dose screening, prostate cancer PC-3; assay type: cell-based, human; conditions: 10 μM
# MCF7 = assay: NCI one-dose screening, breast cancer MCF7; assay type: cell-based, human; conditions: 10 μM
# HS 578-T = assay: NCI one-dose screening, breast cancer HS 578-T; assay type: cell-based, human; conditions: 10 μM; Breast cancer
# MDA-MB-231/ATCC = assay: NCI one-dose screening, breast cancer MDA-MB-231/ATCC; assay type: cell-based, human; conditions: 10 μM
# MDA-MB-468 = assay: NCI one-dose screening, breast cancer MDA-MB-468; assay type: cell-based, human; conditions: 10 μM
# NCl/ADR-RES = assay: NCI one-dose screening, breast cancer NCl/ADR-RES; assay type: cell-based, human; conditions: 10 μM; listed under Ovarian cancer
# BT-549 = assay: NCI one-dose screening, breast cancer BT-549; assay type: cell-based, human; conditions: 10 μM
# T-47D = assay: NCI one-dose screening, breast cancer T-47D; assay type: cell-based, human; conditions: 10 μM
# MDA, -MB-435 = assay: NCI one-dose screening, breast cancer MDA, -MB-435; assay type: cell-based, human; conditions: 10 μM; listed under Melanoma
# human tumor cell lines = assay: NCI one-dose screening, Mean / Delta / Range of growth percent over all tested cell lines; assay type: cell-based; conditions: 10 μM
structure (smiles),measurement,setting,value
"Cc1ccc(Sc2cc3c(c4nsnc24)C(=O)c2ccccc2C3=O)c(C)c1 [C25, 4-(2,4-dimethylphenylthio)anthra[2,1-c] [1,2,5]thiadiazol-6,11-dione]",IC50,[1],> 15 µM
same,Growth Percent HL-60(TB),"HL-60, TB",99.93%
same,Growth Percent MOLT-4,MOLT-4,91.01%
same,Growth Percent SR,SR,70.26%
same,Growth Percent RPMI-8226,PRMI-8226 cell line,85.14%
same,Growth Percent K562,K562cell line,67.97%
same,Growth Percent EKVX,EKVX,108.79%
same,Growth Percent HOP-62,HOP-62,79.34%
same,Growth Percent HOP-92,HOP-92,97.83%
same,Growth Percent NCI-H226,NCI-H226,01.50%
same,Growth Percent NCI-H23,NCI-H23,89.40%
same,Growth Percent NCI-H460,NCI-H460,102.01%
same,Growth Percent NCI-H522,NCI-H522,96.81%
same,Growth Percent A549/ATCC,A549/ATCC,109.80%
same,Growth Percent COLO 205,COLO 205,106.63%
same,Growth Percent HCC-2998,HCC-2998,121.23%
same,Growth Percent HCT-116,HCT-116,94.55%
same,Growth Percent HCT-15,HCT-15,83.04%
same,Growth Percent KM12,KM12,96.42%
same,Growth Percent HT29,HT29,101.47%
same,Growth Percent SF-268,SF-268,90.61%
same,Growth Percent SF-539,SF-539,100.22%
same,Growth Percent SNB-19,SNB-19,102.33%
same,Growth Percent SNB-75,SNB-75,76.05%
same,Growth Percent U251,U251,104.99%
same,Growth Percent LOX IMVI,LOX IMVI,90.38%
same,Growth Percent MALME-3M,MALME-3M,108.23%
same,Growth Percent M14,M14,100.77%
same,Growth Percent UACC-62,UACC-62,94.50%
same,Growth Percent UACC-257,UACC-257,121.93%
same,Growth Percent SK-MEL-2,SK-MEL-2,98.52%
same,Growth Percent SK-MEL-28,SK-MEL-28,118.64%
same,Growth Percent SK-MEL-5,SK-MEL-5,109.99%
same,Growth Percent IGROV1,IGROV1,95.00%
same,Growth Percent OVCAR-3,OVCAR-3,105.38%
same,Growth Percent OVCAR-5,OVCAR-5,106.46%
same,Growth Percent OVCAR-8,OVCAR-8,104.59%
same,Growth Percent SK-OV-3,SK-OV-3,110.36%
same,Growth Percent 786-0,786-O,105.11%
same,Growth Percent A498,[2],84.37%
same,Growth Percent ACHN,ACHN,94.24%
same,Growth Percent SN12C,SN12C,98.68%
same,Growth Percent TK-10,TK-10,127.11%
same,Growth Percent UO-31,UO-31,65.72%
same,Growth Percent RXF 393,"RXF, 393",105.93%
same,Growth Percent DU145,DU145,109.69%
same,Growth Percent PC-3,PC-3,76.11%
same,Growth Percent MCF7,MCF7,79.77%
same,Growth Percent HS 578T,HS 578-T,99.06%
same,Growth Percent MDA-MB-231/ATCC,MDA-MB-231/ATCC,92.27%
same,Growth Percent MDA-MB-468,MDA-MB-468,100.45%
same,Growth Percent NCI/ADR-RES,NCl/ADR-RES,97.75%
same,Growth Percent BT-549,BT-549,94.55%
same,Growth Percent T-47D,T-47D,75.36%
same,Growth Percent MDA-MB-435,"MDA, -MB-435",105.58%
same,Growth Percent Delta,human tumor cell lines; delta over all cell lines,31.54%
same,Growth Percent Mean,human tumor cell lines; mean over all cell lines,97.26%
same,Growth Percent Range,human tumor cell lines; range over all cell lines,61.39%
